# Laboratory results taken from patent publication US20140031389A1, “SCREENING METHODS AND PHARMACEUTICAL COMPOSITIONS FOR THE TREATMENT OF INFLAMMATORY BOWEL DISEASES” (INSERM (INSTITUT NATIONAL DE LA SANTE ET DE LA RECHERCHE …, priority 2011, published 2014).
# What was measured:
# IL10/Nox1^dKO mice = experiment: Salubrinal treatment of spontaneous colitis in IL10/Nox1^dKO mice; assay type: in vivo
# Source text: All SPF-reared C57B1/6-IL10/Nox1^dKO mice developed spontaneously colitis at 6/7 weeks and disease activity index (DAI) scores which became more severe with age, including diarrhea, high incidence of rectal bleeding, change in body and colon weights, and prolapses. None of WT and single-KO mice developed colitis during the time frame studied. […] We next measured epithelial permeability of FITC-dextran in segments of distal colon and indigenous bacterial translocation was identified in the spleen of 7 and 12-week-old mice. […] Consistent with previous findings in patients with UC^30,31, IL10/Nox1^dKO mice expressed almost 50% of microRNAs relevant in defining UC signature.
# (§1) To assess the pathogenic role of goblet cells in UC, WT and Nox1^KO mice were subjected to oral administration of DSS or rectal administration of TNBS. […] IRE1beta and ATF6alpha branch signaling were extended in colonic epithelial cells as evidenced by the increased XBP-1 mRNA splicing, the induction of GRP78, GRP94, PDI at both mRNA and protein levels, and dilated cisternae and gross distortion of the ER in goblet cells. […] Consistent with reduced eIF2α phosphorylation, increased expression of PPP1R15A/GADD34, a stress-inducible protein that recruits the catalytic subunit of protein phosphatase 1 and promotes elF2alpha dephosphorylation, was detected in agreement with our previous data in humans^1. EIF2alpha phosphorylation is cytoprotective during ERS, because cells are sensitized to cell death when this pathway is genetically ablated^33 and protected when it is ectopically enforced^34. To test whether a selective pharmacological inhibitor of GADD34-mediated elF2alpha dephosphorylation may alleviate colitis, IL10/Nox1^dKO mice were treated with 1 mg/kg salubrinal^35 for up to three weeks.
# [1] = test system: GADD34-mediated elF2alpha dephosphorylation; experiment: elF2alpha phosphorylation and ER stress markers in colonic mucosa of salubrinal-treated IL10/Nox1^dKO mice; assay type: in vivo
# Source text: as §1
# [2] = IL10/Nox1^dKO mice, 1 mg/kg salubrinal for up to three weeks
# [3] = salubrinal-treated IL10/Nox1^dKO mice, 1 mg/kg for up to three weeks
structure (smiles),measurement,setting,value
"O=C(/C=C/c1ccccc1)NC(NC(=S)Nc1cccc2cccnc12)C(Cl)(Cl)Cl (stereo not drawn) [salubrinal, 3-phenyl-N-[2,2,2-trichloro-1-[[(8-quinolinylamino)thioxomethyl]amino]ethyl]-2-propenamide]",histological colitis score throughout the colon,IL10/Nox1^dKO mice; [2],strongly reduced
same,immune cell infiltration,IL10/Nox1^dKO mice; [2],markedly prevented
same,mucosal architecture and goblet cells,IL10/Nox1^dKO mice; [2],restored intact mucosal architecture with normal goblet cells
same,apoptosis of colonic mucosa,"IL10/Nox1^dKO mice; IL10/Nox1^dKO mice, 1 mg/kg salubrinal for up to three weeks, anti-apoptotic activity on CHOP expression",protected colonic mucosa against apoptosis
same,amount of colonic and splenic Treg cells,IL10/Nox1^dKO mice; [3],strongly decreased to baseline
same,levels of proinflammatory cytokines,IL10/Nox1^dKO mice; [3],strongly decreased to baseline
same,elF2alpha phosphorylation,"[1]; colonic mucosa, IL10/Nox1^dKO mice, 1 mg/kg salubrinal for up to three weeks",robust elF2alpha phosphorylation
same,Grp78/Bip and Grp94 expression,[1]; [3],trend toward reduced
same,localisation of salubrinal-induced phosphorylation of elF2alpha,[1]; [3],mainly detected in colonic epithelial cells
